{
  "source": "patent US12496298B2",
  "about": "“Natural killer cells” (Imperial College Innovations Limited, priority 2017, dated 2025)",
  "format_in_all_cases": "cell-based, mouse",
  "key": {"[1]": {"system": "E4bp4", "assay": "RT-qPCR relative expression of E4bp4 in cultured HPCs", "description": "(§1) FIG. 8: HPCs were cultured with or without 5 μM SR8278 added on Day 2. At Day 3, 4 and 5, cells were harvested in order to quantify their relative […] by RT-qPCR. The graphs show relative expression of (A) E4bp4, (B) Id2 and (C) Eomes normalized to the housekeeping gene, Hprt.\n(§2) HPCs isolated from a WT mouse were cultured as previously (FIG. 2) but the cells were harvested and analysed using RT-qPCR on Day 3, 4 and 5. The relative expression of the E4bp4, Id2 and Eomes genes was compared to the housekeeping gene, Hprt. At Day 4, E4bp4, Id2 and Eomes expression was higher in SR8278 treated samples when compared to the ‘No drug’ control (FIG. 8). The increase in E4bp4 expression disappeared at Day 5 but the increase of Id2 expression remained (FIG. 8B). The upregulation of E4bp4 and its downstream targets happens in a matter of hours and only stays high for a defined period of time.\n(§3) RNA was extracted using Qiagen RNeasy Micro Kit according to the manufacture's protocol (Qiagen). Centrifugation was done at 8000 g for 15 seconds and the flow through discarded. Briefly, 350 μl of Buffer RLT+10% β-Mercaptoethanol were added to the harvested cells. […] The concentration of RNA in each sample was measured using Nanodrop, and all samples were diluted to the same working concentration. […]"}, "[2]": {"system": "Id2", "assay": "RT-qPCR relative expression of Id2 in cultured HPCs", "description": "as §1, §2, §3"}, "[3]": {"system": "Eomes", "assay": "RT-qPCR relative expression of Eomes in cultured HPCs", "details": "5 μM added Day 2, harvested Day 4", "description": "as §1, §2, §3"}, "[4]": {"details": "5 μM added Day 2, harvested Day 4"}, "[5]": {"details": "5 μM added Day 2, harvested Day 5"}},
  "data": [
    {"molecule": "CCOC(=O)C1Cc2ccccc2CN1C(=O)c1ccc(SC)s1", "note": "(centres unmarked) [SR8278, 1,2,3,4-Tetrahydro-2-[[5-(methylthio)-2-thienyl]carbonyl]-3-isoquinolinecarboxylic acid ethyl ester]", "values": [
      {"measurement": "E4bp4 expression relative to Hprt, compared to 'No drug' control", "setting": "[1]; [4]", "result": "higher"},
      {"measurement": "increase in E4bp4 expression", "setting": "[1]; [5]", "result": "disappeared"},
      {"measurement": "Id2 expression relative to Hprt, compared to 'No drug' control", "setting": "[2]; [4]", "result": "higher"},
      {"measurement": "increase of Id2 expression", "setting": "[2]; [5]", "result": "remained"},
      {"measurement": "Eomes expression relative to Hprt, compared to 'No drug' control", "setting": "[3]", "result": "higher"}
    ]}
  ]
}
